{"source": "patent US20050038022A1", "about": "“Method for treatment of cancer and compositions for use therein” (Unisearch Limited, priority 2001, published 2005)", "key": {"PC3, LNCap and Du 145": {"system": "PC3, LNCap and Du 145", "experiment": "Albendazole/ABS proliferation test, prostate cancer cells", "assay_type": "cell-based, human", "settings": "3 human prostate cell lines", "experimental": "In order to be able to test ABS, a proper solvent had to be found. […] Therefore to allow direct comparison between the 2 compounds, all subsequent experiments were run using 0.5% DMSO for both ABS and albendazole. In the cell lines examined, albendazole produced very similar results to what we had previously reported for the drug in liver cancer cells.\nBoth albendazole and ABS were tested side by side against various cell lines as follows: • Liver—HepGZ Hep3B, SKHEP-1 • Colorectal—170, LOVO, HT-29 • Prostate—PC3, LNCap, Du145 • Leukeamic—HL60\nCells were treated with various concentrations of each compound for a period of 5 days."}, "HCC cell lines": {"system": "HCC cell lines", "experiment": "[3H]thymidine incorporation, all HCC cell lines (summary)", "settings": "1000 nM albendazole", "protocol": "For the study of [^3H]thymidine incorporation, adherent cells (5-10×10^4) were plated onto 24-well Corning tissue culture dishes and were exposed to culture medium (5% FBS) containing the vehicle (0.1% ethanol) or different concentrations of albendazole (10^−8 to 10^−6 M). For Novikoff, a detached rat cell line, 2500 cells were suspended in 2 ml of DMEM (5% FBS) and kept under the same condition as for attached cells. Media were replaced with fresh media on alternate days. At the end of the treatment period (5 days), cell cultures were assayed for thymidine incorporation by the addition of 0.5 μCi of [^3H]thymidine (60 Ci/mmol. ICN Biochem, Irvine, Calif.) to each well for the last 4 h of culture. The amount of radioactivity incorporated into cells was determined using a β-scintillation counter. […] For the recovery experiments, SKHEP-1 cells were treated for 1 day with different concentrations of albendazole and then either assayed for [^3H]thymidine incorporation or the medium was replaced and the cells treated with fresh medium with out the drug for a further 4 days at the end of which, [^3H] thymidine incorporation assay was performed.\n[^3H]Thymidine incorporation assay was used to determine the effect of albendazole on cell proliferation in a number of human (HepG2, Hep3-B, PLC/PRF/5, SKHEP-1), rat (HTC and Novikoff) and mice (Hep1-6) HCC cell lines."}, "[1]": {"system": "SKHEP-1 subcutaneous tumor", "experiment": "Tumor formation in nude mice", "assay_type": "in vivo, BALB/c Nu/Nu mice", "settings": "for maximum proliferation index (MPI), Ki-67: mean±s.e.m.", "experimental": "6 to 10 weeks old male BALB/c Nu/Nu mice (Animal Resources Center, Perth, Australia) were inoculated subcutaneously with 10^6 SKHEP-1 cells into the right flank. 24 hours after inoculation animals were randomly assigned to one of the treatment groups (n=10 per group), receiving 25, 50 or 150 mg/kg twice daily oral albendazole suspended in sesame oil for 20 days.\nThe control group was treated with the vehicle (sesame oil). Using vernier calipers, tumor diameter (mm) was measured on day eight and then every three days up to day 20-post tumor cell inoculation. Tumor volumes were calculated using the formula: ab^2/2 where a and b are the […] diameters in millimeters, respectively and a piece of the tumor was preserved in paraffin for immunohistochemical determination of maximum proliferation index (MPI). Here, after fixation, the specimen was processed for the detection of Ki-67 antigen with the monoclonal antibody MIB1 according to the method described by McCormick.\nThe animal model was chosen on the basis of SKHEP-1 being the most tumorigenic human liver cancer cell line in nude mice and previous experience with the model."}, "[2]": {"system": "liver tumors (CRC or HCC)", "experiment": "Albendazole in patients with advanced malignancy (phase 1 trial)", "assay_type": "in vivo, human", "experimental": "The study was single-centre, open and non-controlled. Nine patients (8 male and 1 female) with either advanced CRC and hepatic metastasis or HCC were included in this study. One patient with neuroendocrine cancer and mesothelioma was also treated on a compassionate basis. The patients aged between 38-79 years were inoperable and had failed existing chemotherapy and also, except for two, had measurable and increasing tumor markers. The majority had also already failed hepatic artery chemotherapy. The diagnosis of CRC or HCC was made by ultrasound, CT or MRI scan, confirmed by histology and by determination of CEA or AFP levels for CRC or HCC respectively. Only patients with expected survival of more than one month were enrolled into the study. The study was approved by the Human Ethics Committee for Research of SESAHS. The protocol and the aim of the study was clearly explained to each patient and informed consent obtained. The duration of this study was four weeks but was to be stopped if leukopenia (WBC<[…]) or severe hepatocellular injury (ALT or AST 2× upper limit) developed. All patients received albendazole (400 mg scored tablets, Smith Kline Beecham, Australian subsidiary) 10 mg/kg orally in two or three divided doses for a planned duration of four weeks. This is the clinical dose of albendazole employed in the treatment of parasitic diseases. Patients were evaluated every three days by clinical examination together with full blood tests to monitor tumor markers, hematopoesis, liver and kidney function toxicity. A partial response (PR) was defined as a 50% or more decrease in the value of the markers. In addition there must be no new lesions or progression of any other lesions. Stable disease was defined as a decrease of less than 50%, or an increase of less than 25% in the value of tumor markers, while progressive disease (PD) was a 25% or more increase in the value of the tumor markers or the appearance of any new lesions."}, "HTC": {"system": "HTC", "experiment": "[3H]thymidine incorporation assay, HTC", "assay_type": "cell-based, rat", "settings": "5 days", "experimental": "(§1) HepG2, Hep3-B, Hep1-6, SKHEP-1, PLC/PRF/5, and HTC cells were obtained from European Collection of Cell Cultures (ECACC; U.K), Novikoff was obtained from Cancer Research Centre (DKFZ) Heidelberg, Germany. Cells were cultured in MEM or DMEM supplemented with 10% FBS, 50 units/ml penicillin, 50 units/ml streptomycin, 25 μg/ml amphotericin B (Gibco, Grand Island, N.Y.) and maintained subconfluent at 37° C. in humidified incubators containing 5% CO2. Albendazole (Sigma, Australian subsidiary) was dissolved in absolute ethanol at concentrations that were 1000-fold higher than the final medium concentration."}, "Hep3-B": {"system": "Hep3-B", "experiment": "[3H]thymidine incorporation assay, Hep3-B", "assay_type": "cell-based, human", "settings": "5 days", "experimental": "as §1"}, "[3]": {"system": "liver (HepG2, Hep3B, PLC/PRF/5, SKHEP-1, Hep1-6, HTC, Novikoff) and colorectal cancer (C-170, HT-29 and LOVO) cell lines", "experiment": "[3H]thymidine incorporation, liver and colorectal cancer cell lines (summary)", "assay_type": "cell-based, human and animal", "settings": "liver or colorectal cancer cells", "excerpt": "The present inventors tested BZs and particularly albendazole against a range of liver (HepG2, Hep3B, PLC/PRF/5, SKHEP-1, Hep1-6, HTC, Novikoff) and colorectal cancer (C-170, HT-29 and LOVO) cell lines."}, "SKHEP-1 [4]": {"system": "SKHEP-1", "experiment": "[3H]thymidine incorporation assay, SKHEP-1", "assay_type": "cell-based, human", "experimental": "as §1"}, "SKHEP-1 [5]": {"system": "SKHEP-1", "experiment": "Combination with methimazole (MT), SKHEP-1 growth", "assay_type": "cell-based", "settings": "SKHEP-1, albendazole 0.25 μM, 5 days", "experimental": "The effect of inhibition of metabolism of albendazole on its antiproliferative activity was investigated using […] and the methimazole as an inhibitor of albendazole\n5000 cells each of HepG2 and S EP1 were plated into 24 wells plates and treated for 5 days with various concentrations of albendazole alone or together with MT."}}}
{"smiles": "CCCSc1ccc2nc(NC(=O)OC)[nH]c2c1", "note": "[albendazole, methyl 5-propylthio-1H-benzimidazole-2-yl carbamate]", "values": [{"measurement": "sensitivity of prostate cell lines in culture", "setting": "PC3, LNCap and Du 145", "result": "quite sensitive"}, {"measurement": "thymidine incorporation", "setting": "HCC cell lines", "result": "less than 20 % of control values"}, {"measurement": "maximum proliferation index (MPI), Ki-67", "setting": "[1]; 50 mg/kg dose", "result": "22.54±1.53"}, {"measurement": "maximum proliferation index (MPI), Ki-67", "setting": "[1]; 150 mg/kg dose", "result": "13.36±3.04"}, {"measurement": "mean tumor volume", "setting": "[1]; 300 mg/kg dose oral in sesame oil, 20 days post inoculation, p<0.001", "result": "12.0±7.8", "unit": "mm^3"}, {"measurement": "tumor growth", "setting": "[1]; 50 and 150 mg/kg per day oral", "result": "slightly but not significantly retarded"}, {"measurement": "disease outcome by tumor markers", "setting": "[2]; 10 mg/kg/day oral, planned 28 days, nine patients (FIG. 6)", "result": "stabilization of the disease in three, and progression of the disease in the other two patients"}, {"measurement": "liver and kidney function tests", "setting": "[2]; during the course of the trial, 10 mg/kg/day oral", "result": "no significant changes"}, {"measurement": "Comments (adverse event)", "setting": "[2]; patient 1, HCC, 19 days treatment", "result": "neutropenia;"}, {"measurement": "Comments (adverse event)", "setting": "[2]; patient 2, CRC, 14 days treatment", "result": "neutropenia;"}, {"measurement": "Comments (adverse event)", "setting": "[2]; patient 8, CRC", "result": "neutropenia"}, {"measurement": "serum CEA levels", "setting": "[2]; patient 9, for the duration of the treatment (4 weeks)", "result": "less than 10 μg/L"}, {"measurement": "disease outcome", "setting": "[2]; patient number 1 (HCC), treatment stopped on day 19", "result": "stabilization of the disease"}, {"measurement": "fatal outcome", "setting": "[2]; patient number 1, after stopping albendazole, almost certainly related to therapy", "result": "died of neutropaenic sepsis"}, {"measurement": "neutropenia", "setting": "[2]; patients 1, 2 and 8, drug had to be withdrawn", "result": "significant neutropenia developed"}, {"measurement": "serum CEA levels", "setting": "[2]; patients 6, 7 and 8, 10 mg/kg/day oral", "result": "stable CEA levels"}, {"measurement": "[3H]thymidine incorporation", "setting": "HTC; albendazole 10 nM", "result": "98.4 ± 7.5", "unit": "% control"}, {"measurement": "[3H]thymidine incorporation", "setting": "HTC; albendazole 100 nM", "result": "86.0 ± 6.9", "unit": "% control"}, {"measurement": "[3H]thymidine incorporation", "setting": "HTC; albendazole 500 nM", "result": "28.5 ± 2.2", "unit": "% control"}, {"measurement": "[3H]thymidine incorporation", "setting": "HTC; albendazole 1000 nM", "result": "11.4 ± 1.3", "unit": "% control"}, {"measurement": "[3H]thymidine incorporation", "setting": "Hep3-B; albendazole 10 nM", "result": "105.7 ± 8.6", "unit": "% control"}, {"measurement": "[3H]thymidine incorporation", "setting": "Hep3-B; albendazole 100 nM", "result": "68.5 ± 5.7", "unit": "% control"}, {"measurement": "[3H]thymidine incorporation", "setting": "Hep3-B; albendazole 500 nM", "result": "22.6 ± 1.8", "unit": "% control"}, {"measurement": "[3H]thymidine incorporation", "setting": "Hep3-B; albendazole 1000 nM", "result": "9.3 ± 0.7", "unit": "% control"}, {"measurement": "concentration at which inhibitory activity starts", "setting": "[3]", "result": "around 0.1 micromoles/L"}, {"measurement": "inhibition at 1 µM", "setting": "SKHEP-1 [4]; Homo sapiens, SK-HEP1, 120 h, SKHEP-1, 1000 nM albendazole, 5 days", "result": 99.4, "unit": "%"}, {"measurement": "thymidine incorporation after 1 day exposure", "setting": "SKHEP-1 [4]; SKHEP-1, 1 day, concentrations of 250 nM and over (FIG. 1a)", "result": "profound inhibition of thymidine incorporation"}, {"measurement": "[3H]thymidine incorporation", "setting": "SKHEP-1 [4]; SKHEP-1, albendazole 10 nM, 5 days", "result": "89.6 ± 6.1", "unit": "% control"}, {"measurement": "[3H]thymidine incorporation", "setting": "SKHEP-1 [4]; SKHEP-1, albendazole 100 nM, 5 days", "result": "63.7 ± 3.1", "unit": "% control"}, {"measurement": "[3H]thymidine incorporation", "setting": "SKHEP-1 [4]; SKHEP-1, albendazole 500 nM, 5 days", "result": "4.5 ± 1.1", "unit": "% control"}, {"measurement": "growth inhibition", "setting": "SKHEP-1 [5]", "result": "profoundly inhibited"}]}
